Experimental data from PMC3402595 (Breast Cancer Research and Treatment, 2012).
Where a SMILES comes first, the peptide text is derived from it. [ ]: non-standard residue; d: D form. pS = N[C@@H](COP(=O)(O)O)C(=O)O

Columns and labels:
[1] = target: T1, BRCT(BRCA1) (Homo sapiens, UniProt P38398); test: Competitive fluorescence polarization, inhibition of BRCT; type: binding
[2] = target: T1, BRCT(BRCA1); settings: systematic structure activity relationship study; ref [3]; cited from earlier work
[3] = Precipitation of Olaparib; type: physicochemical

T1 sequence (P38398 1646-1859 limits assumed): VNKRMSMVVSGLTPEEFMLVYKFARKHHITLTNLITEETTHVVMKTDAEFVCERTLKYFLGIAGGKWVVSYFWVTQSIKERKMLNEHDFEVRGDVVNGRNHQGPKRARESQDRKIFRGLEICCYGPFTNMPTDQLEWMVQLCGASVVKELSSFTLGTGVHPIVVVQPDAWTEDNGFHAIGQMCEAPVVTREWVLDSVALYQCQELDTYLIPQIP

Row | Ki [1] [nM] | concentration at which precipitation of Olaparib was observed [3] | SMILES | binding affinity for BRCT(BRCA1) [2]
1 | 230 ± 60 |  | CC(=O)N[C@@H](COP(=O)(O)O)C(=O)N1CCC[C@H]1C(=O)N[C@H](C(=O)N[C@@H](Cc1ccccc1)C(=O)O)[C@@H](C)O [Inhibitor 1, Ac-pSPTF-CO2H] (Ac-[pS]PTF-OH) | nanomolar binding affinities
2 |  | higher than 25 μM | O=C(c1cc(Cc2n[nH]c(=O)c3ccccc23)ccc1F)N1CCN(C(=O)C2CC2)CC1 [Olaparib] | 
